Experimental data published in US20030129629A1, “Methods and compositions for the identification, assessment, prevention, and therapy of human cancers” (Millennium Pharmaceuticals, Inc., priority 2000, published 2003).
Like-named read-outs stand apart in the source and are kept apart here.

What was measured:
[1] = test system: 60 cancer cell lines (NCI 60 cancer cell line series); assay: NCI-DTP in vitro cancer screen, sulforhodamine B (SRB) growth inhibition, 48 hour exposure; format: cell-based, human
Procedure, shortened: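 NCI-DTP panel of 60 cancer cell lines plated day 0 at line-specific densities, exposed from day 1 to compound at 5 ten-fold-spaced doses in duplicate wells. After 48 h, cell mass stained with sulforhodamine B; −log GI50 derived from dose–response curves, averaged, and classed Low, Medium or High sensitivity.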

[2] = test system: 60 cancer cell lines (NCI 60 cancer cell line series); details: cited from earlier work

In the case of COc1cc([C@@H]2c3cc4c(cc3[C@@H](O[C@@H]3O[C@@H]5CO[C@@H](c6cccs6)O[C@H]5[C@H](O)[C@H]3O)[C@H]3COC(=O)[C@H]23)OCO4)cc(OC)c1O [Teniposide], the “classification of cell line as Low(1), Medium(2), High(3) sensitivity to compound” value (shortened to “classification of cell line”) ([1]; Breast BT-549 CL5013) is reported as 2, the “classification of cell line” value ([1]; Breast HS-578T CL5006) is reported as 2 and the “classification of cell line” value ([1]; Breast MCF7(I) CL5001) is reported as 3. The “classification of cell line” value ([1]; Breast MCF7/ADRr CL5002) was 1, the “classification of cell line” value ([1]; Breast MDA-MB-231 CL5005) was 2 and the “classification of cell line” value ([1]; Breast MDA-MB-435 CL5011) was 2. The “classification of cell line” value ([1]; Breast MDA-N CL5012) was 2, the “classification of cell line” value ([1]; Breast T-47D CL5014) was 2 and the “classification of cell line” value ([1]; CNS SF-268 CL12014) was 2. For the same compound, the “classification of cell line” value ([1]; CNS SF-295 CL12015) was 2, the “classification of cell line” value ([1]; CNS SF-539 CL12016) was 2 and the “classification of cell line” value ([1]; CNS SNB-19 CL12002) was 2. The “classification of cell line” value ([1]; CNS SNB-75(I) CL12005) was 2, the “classification of cell line” value ([1]; CNS U251(I) CL12009) was 2 and the “classification of cell line” value ([1]; Colon COLO-250 CL4010) was 2. The “classification of cell line” value ([1]; Colon HCC-2998 CL4002) was 2, the “classification of cell line” value ([1]; Colon HCT-15 CL4015) was 2 and the “classification of cell line” value ([1]; Colon HCT-116 CL4003) was 2. For the same compound, the “classification of cell line” value ([1]; Colon HT29(I) CL4001) was 2, the “classification of cell line” value ([1]; Colon KM12 CL4017) was 2 and the “classification of cell line” value ([1]; Colon SW-620 CL4009) was 2. For the same compound, the “classification of cell line” value ([1]; Leukemia CCRF-CEM(I) CL7003) was 3, the “classification of cell line” value ([1]; Leukemia HL-60(I) CL7008) was 3 and the “classification of cell line” value ([1]; Leukemia K562(I) CL7005) was 2. The “classification of cell line” value ([1]; Leukemia MOLT-4 CL7006) was 3, the “classification of cell line” value ([1]; Leukemia RPMI-8226(I) CL7010) was 2 and the “classification of cell line” value ([1]; Leukemia SR CL7019) was 3. For the same compound, the “classification of cell line” value ([1]; Melanoma LOX IMVI CL10001) was 2, the “classification of cell line” value ([1]; Melanoma M14 CL10014) was 2 and the “classification of cell line” value ([1]; Melanoma MALME-3M CL10002) was 2. For the same compound, the “classification of cell line” value ([1]; Melanoma SK-MEL-2 CL10005) was 2, the “classification of cell line” value ([1]; Melanoma SK-MEL-28 CL10008) was 2 and the “sensitivity classification Low(1)/Medium(2)/High(3)” value ([1]; NSCLC NCI-H23(I) CL1001) was 2. The “sensitivity classification Low(1)/Medium(2)/High(3)” value ([1]; NSCLC NCI-H332M CL1017) was 1, the “sensitivity classification Low(1)/Medium(2)/High(3)” value ([1]; NSCLC NCI-H460 CL1021) was 3 and the “sensitivity classification Low(1)/Medium(2)/High(3)” value ([1]; NSCLC NCI-H522 CL1003) was 2. For the same compound, the “sensitivity classification Low(1)/Medium(2)/High(3)” value ([1]; Ovarian IGROV1 CL6010) was 2, the “sensitivity classification Low(1)/Medium(2)/High(3)” value ([1]; Ovarian OVCAR-3 CL6001) was 2 and the “sensitivity classification Low(1)/Medium(2)/High(3)” value ([1]; Ovarian OVCAR-4 CL6002) was 1. For the same compound, the “sensitivity classification Low(1)/Medium(2)/High(3)” value ([1]; Ovarian OVCAR-5 CL6003) was 2, the “sensitivity classification Low(1)/Medium(2)/High(3)” value ([1]; Ovarian OVCAR-8 CL6005) was 2 and the “sensitivity classification Low(1)/Medium(2)/High(3)” value ([1]; Ovarian SK-OV-3 CL6011) was 2. The “sensitivity classification Low(1)/Medium(2)/High(3)” value ([1]; Prostate DU-145 CL11003) was 2, the “sensitivity classification Low(1)/Medium(2)/High(3)” value ([1]; Prostate PC-3(I) CL11001) was 2 and the “sensitivity classification Low(1)/Medium(2)/High(3)” value ([1]; Renal 786-0 CL9018) was 2. For the same compound, the “sensitivity classification Low(1)/Medium(2)/High(3)” value ([1]; Renal A498 CL9013) was 2, the “sensitivity classification Low(1)/Medium(2)/High(3)” value ([1]; Renal ACHN CL9023) was 2 and the “sensitivity classification Low(1)/Medium(2)/High(3)” value ([1]; Renal CAKI-1 CL9015) was 3. The “sensitivity classification Low(1)/Medium(2)/High(3)” value ([1]; Renal RXF-393 CL9016) was 2, the “sensitivity classification Low(1)/Medium(2)/High(3)” value ([1]; Renal SN12C CL9008) was 2 and the “sensitivity classification Low(1)/Medium(2)/High(3)” value ([1]; Renal TK10 CL9024) was 2. For the same compound, the “sensitivity classification Low(1)/Medium(2)/High(3)” value ([1]; Renal UO-31 CL9004) was 1, the “−Log (GI50)” value ([2]; Melanoma SK-MEL-2 CL10005) was 6.0 and the “−Log (GI50)” value ([2]; Melanoma SK-MEL-28 CL10008) was 5.8. The “−Log (GI50)” value ([2]; NSCLC NCI-H226 CL1013) was 6.5.

In the case of N.N.[Cl][Pt][Cl] [cisplatin, cis-Diamminedichloroplatinum (II), reference compound], the “classification of cell line” value ([1]; Breast BT-549 CL5013) is reported as 2, the “classification of cell line” value ([1]; Breast HS-578T CL5006) is reported as 2 and the “classification of cell line” value ([1]; Breast MCF7/ADRr CL5002) is reported as 2. For the same compound, the “classification of cell line” value ([1]; Breast MDA-MB-231 CL5005) was 1, the “classification of cell line” value ([1]; Breast MDA-N CL5012) was 2 and the “classification of cell line” value ([1]; Breast T-47D CL5014) was 1. The “classification of cell line” value ([1]; CNS SF-268 CL12014) was 3, the “classification of cell line” value ([1]; CNS SF-539 CL12016) was 2 and the “classification of cell line” value ([1]; CNS SNB-75(I) CL12005) was 2. The “classification of cell line” value ([1]; CNS U251(I) CL12009) was 2, the “classification of cell line” value ([1]; Colon COLO-250 CL4010) was 1 and the “classification of cell line” value ([1]; Colon HCC-2998 CL4002) was 2. For the same compound, the “classification of cell line” value ([1]; Colon HCT-15 CL4015) was 1, the “classification of cell line” value ([1]; Colon HT29(I) CL4001) was 1 and the “classification of cell line” value ([1]; Colon SW-620 CL4009) was 2. The “classification of cell line” value ([1]; Leukemia HL-60(I) CL7008) was 3, the “classification of cell line” value ([1]; Leukemia K562(I) CL7005) was 2 and the “classification of cell line” value ([1]; Leukemia RPMI-8226(I) CL7010) was 2. For the same compound, the “classification of cell line” value ([1]; Melanoma LOX IMVI CL10001) was 3, the “classification of cell line” value ([1]; Melanoma M14 CL10014) was 2 and the “classification of cell line” value ([1]; Melanoma SK-MEL-28 CL10008) was 2. For the same compound, the “sensitivity classification Low(1)/Medium(2)/High(3)” value ([1]; NSCLC NCI-H23(I) CL1001) was 3, the “sensitivity classification Low(1)/Medium(2)/High(3)” value ([1]; NSCLC NCI-H460 CL1021) was 3 and the “sensitivity classification Low(1)/Medium(2)/High(3)” value ([1]; NSCLC NCI-H522 CL1003) was 2. For the same compound, the “sensitivity classification Low(1)/Medium(2)/High(3)” value ([1]; Ovarian IGROV1 CL6010) was 2, the “sensitivity classification Low(1)/Medium(2)/High(3)” value ([1]; Ovarian OVCAR-4 CL6002) was 2 and the “sensitivity classification Low(1)/Medium(2)/High(3)” value ([1]; Ovarian OVCAR-5 CL6003) was 2. The “sensitivity classification Low(1)/Medium(2)/High(3)” value ([1]; Ovarian OVCAR-8 CL6005) was 2, the “sensitivity classification Low(1)/Medium(2)/High(3)” value ([1]; Prostate DU-145 CL11003) was 2 and the “sensitivity classification Low(1)/Medium(2)/High(3)” value ([1]; Renal A498 CL9013) was 1. For the same compound, the “sensitivity classification Low(1)/Medium(2)/High(3)” value ([1]; Renal RXF-393 CL9016) was 2, the “sensitivity classification Low(1)/Medium(2)/High(3)” value ([1]; Renal UO-31 CL9004) was 2 and the “−Log (GI50)” value ([2]; Breast MCF7(I) CL5001) was 5.5. The “−Log (GI50)” value ([2]; Ovarian SK-OV-3 CL6011) was 5.2.
